The record followed here is ChEMBL document CHEMBL5465560, “Selectivity Literature for EUbOPEN Chemogenomic Library” (2024).

In assay [1] the target is Ribosomal protein S6 kinase alpha-6 (Homo sapiens, UniProt Q9UK32). Kind of assay: Selectivity interaction (KinomeScan (DiscoverX)) EUB0001619a RPS6KA6. The note with it: at 1 µM.
Assay [2] addresses Tyrosine-protein kinase Fer (Homo sapiens) (UniProt P16591). The note with it: at 10 µM.
For assay [3], the target named is T1, Inhibitor of nuclear factor kappa-B kinase subunit beta (Homo sapiens) (UniProt O14920).
T1 sequence (whole entry): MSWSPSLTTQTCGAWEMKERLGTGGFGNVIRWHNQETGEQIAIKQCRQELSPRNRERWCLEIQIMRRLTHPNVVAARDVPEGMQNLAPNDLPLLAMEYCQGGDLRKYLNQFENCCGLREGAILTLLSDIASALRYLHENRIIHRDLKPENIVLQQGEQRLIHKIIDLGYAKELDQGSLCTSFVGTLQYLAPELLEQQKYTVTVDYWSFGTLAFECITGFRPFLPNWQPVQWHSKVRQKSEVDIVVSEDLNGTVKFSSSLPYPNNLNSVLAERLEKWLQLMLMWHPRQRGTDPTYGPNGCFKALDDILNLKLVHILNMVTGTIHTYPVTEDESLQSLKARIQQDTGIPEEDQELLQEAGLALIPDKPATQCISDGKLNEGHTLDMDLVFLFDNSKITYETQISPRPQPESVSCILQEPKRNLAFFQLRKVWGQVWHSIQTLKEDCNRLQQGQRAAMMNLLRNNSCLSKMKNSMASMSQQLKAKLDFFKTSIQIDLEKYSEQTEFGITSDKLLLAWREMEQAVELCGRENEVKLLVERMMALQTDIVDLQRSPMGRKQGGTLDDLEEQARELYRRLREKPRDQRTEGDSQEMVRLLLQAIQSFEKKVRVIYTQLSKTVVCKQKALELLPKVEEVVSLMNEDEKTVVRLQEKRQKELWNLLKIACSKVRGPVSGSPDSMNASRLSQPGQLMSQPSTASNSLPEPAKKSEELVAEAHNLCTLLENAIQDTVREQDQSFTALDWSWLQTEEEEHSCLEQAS
Kind of assay: Selectivity interaction (KinomeScan (DiscoverX)) EUB0000695a IKBKB. As to conditions: at 100 nM.

In assay [4] the target is Rho-associated protein kinase 2 (Homo sapiens, UniProt O75116). As to the kind of experiment: Selectivity interaction (Kinase panel (Invitrogen)) EUB0000639a ROCK2. As to conditions: at 200 nM.
Chain of Rho-associated protein kinase 2 (O75116 whole entry, looked up): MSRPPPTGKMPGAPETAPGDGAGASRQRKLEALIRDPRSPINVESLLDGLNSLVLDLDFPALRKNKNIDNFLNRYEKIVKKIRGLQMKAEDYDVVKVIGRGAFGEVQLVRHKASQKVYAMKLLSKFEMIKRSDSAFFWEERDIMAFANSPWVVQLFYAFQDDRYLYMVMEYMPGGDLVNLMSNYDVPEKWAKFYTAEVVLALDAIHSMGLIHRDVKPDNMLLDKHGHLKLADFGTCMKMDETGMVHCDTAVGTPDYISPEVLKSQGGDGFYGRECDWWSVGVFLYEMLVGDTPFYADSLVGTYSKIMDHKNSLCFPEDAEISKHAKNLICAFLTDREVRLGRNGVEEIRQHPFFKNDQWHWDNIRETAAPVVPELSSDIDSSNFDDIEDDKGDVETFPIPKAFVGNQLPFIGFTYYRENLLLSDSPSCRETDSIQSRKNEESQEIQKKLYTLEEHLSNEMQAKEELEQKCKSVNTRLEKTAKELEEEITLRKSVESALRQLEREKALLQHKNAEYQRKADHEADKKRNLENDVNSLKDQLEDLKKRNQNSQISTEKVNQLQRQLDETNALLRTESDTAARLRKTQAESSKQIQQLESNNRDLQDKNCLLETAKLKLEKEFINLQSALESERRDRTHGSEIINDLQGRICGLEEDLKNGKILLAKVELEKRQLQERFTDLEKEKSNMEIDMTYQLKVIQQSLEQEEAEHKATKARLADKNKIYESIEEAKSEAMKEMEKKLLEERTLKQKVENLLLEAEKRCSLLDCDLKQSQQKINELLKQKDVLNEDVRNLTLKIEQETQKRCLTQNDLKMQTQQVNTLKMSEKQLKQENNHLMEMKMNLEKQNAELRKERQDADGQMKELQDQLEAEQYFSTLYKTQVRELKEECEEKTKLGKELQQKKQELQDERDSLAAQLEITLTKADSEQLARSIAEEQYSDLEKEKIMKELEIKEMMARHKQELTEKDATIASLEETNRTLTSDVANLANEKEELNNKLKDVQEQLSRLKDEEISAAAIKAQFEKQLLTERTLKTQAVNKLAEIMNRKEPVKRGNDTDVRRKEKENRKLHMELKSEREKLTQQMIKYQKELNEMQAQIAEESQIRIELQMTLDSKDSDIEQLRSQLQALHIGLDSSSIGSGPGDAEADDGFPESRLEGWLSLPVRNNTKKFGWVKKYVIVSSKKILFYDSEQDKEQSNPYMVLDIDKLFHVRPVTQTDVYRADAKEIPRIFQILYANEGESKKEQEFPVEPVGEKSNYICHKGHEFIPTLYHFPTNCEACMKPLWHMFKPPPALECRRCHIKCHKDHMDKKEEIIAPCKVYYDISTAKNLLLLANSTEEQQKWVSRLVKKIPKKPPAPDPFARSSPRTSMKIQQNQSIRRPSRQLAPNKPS
In assay [5] the target is T2, Ephrin type-B receptor 2 (Homo sapiens) (UniProt P29323).
T2 sequence (whole entry): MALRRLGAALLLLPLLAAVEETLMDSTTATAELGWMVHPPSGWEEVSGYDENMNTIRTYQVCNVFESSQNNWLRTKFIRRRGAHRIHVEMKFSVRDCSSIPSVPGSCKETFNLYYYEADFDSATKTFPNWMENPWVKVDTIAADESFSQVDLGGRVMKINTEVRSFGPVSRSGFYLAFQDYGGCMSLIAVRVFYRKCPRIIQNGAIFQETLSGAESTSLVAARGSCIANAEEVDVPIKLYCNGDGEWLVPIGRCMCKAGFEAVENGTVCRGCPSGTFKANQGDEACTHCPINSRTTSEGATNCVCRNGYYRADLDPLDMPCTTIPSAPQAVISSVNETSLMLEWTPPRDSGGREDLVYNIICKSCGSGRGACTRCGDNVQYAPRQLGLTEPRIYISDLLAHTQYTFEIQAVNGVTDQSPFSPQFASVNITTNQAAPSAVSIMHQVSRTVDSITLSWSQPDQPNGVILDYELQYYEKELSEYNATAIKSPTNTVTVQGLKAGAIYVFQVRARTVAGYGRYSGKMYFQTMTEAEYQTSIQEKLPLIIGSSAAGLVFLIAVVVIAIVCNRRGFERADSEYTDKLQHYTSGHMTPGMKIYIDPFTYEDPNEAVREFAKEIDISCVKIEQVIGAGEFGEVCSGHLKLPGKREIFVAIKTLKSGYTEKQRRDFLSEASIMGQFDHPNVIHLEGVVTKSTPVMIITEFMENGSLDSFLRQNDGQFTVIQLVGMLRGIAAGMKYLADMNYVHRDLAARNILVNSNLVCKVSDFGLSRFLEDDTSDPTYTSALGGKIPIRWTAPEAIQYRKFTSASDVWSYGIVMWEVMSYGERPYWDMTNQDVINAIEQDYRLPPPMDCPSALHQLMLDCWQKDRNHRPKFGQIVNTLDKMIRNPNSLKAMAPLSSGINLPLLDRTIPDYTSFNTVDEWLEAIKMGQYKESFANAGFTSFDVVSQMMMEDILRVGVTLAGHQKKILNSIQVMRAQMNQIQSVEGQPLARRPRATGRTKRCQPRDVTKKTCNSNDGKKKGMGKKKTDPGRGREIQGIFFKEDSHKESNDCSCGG
As to the kind of experiment: Selectivity interaction (KinomeScan (DiscoverX)) EUB0000045b EPHB2.

Assay [6] relates to Tyrosine-protein kinase ABL1 (Homo sapiens), P00519 [T315I]. Kind of assay: Selectivity interaction (KinomeScan (DiscoverX)) EUB0000045b ABL1. The note with it: at 10 µM.
Assay [7] has as its target Maternal embryonic leucine zipper kinase (Homo sapiens) (UniProt Q14680). As to the kind of experiment: Selectivity interaction (KinomeScan (DiscoverX)) EUB0000229b MELK. As to conditions: at 10 µM.

The structures appear in SMILES notation.

Chain of Ribosomal protein S6 kinase alpha-6 (Q9UK32 whole entry): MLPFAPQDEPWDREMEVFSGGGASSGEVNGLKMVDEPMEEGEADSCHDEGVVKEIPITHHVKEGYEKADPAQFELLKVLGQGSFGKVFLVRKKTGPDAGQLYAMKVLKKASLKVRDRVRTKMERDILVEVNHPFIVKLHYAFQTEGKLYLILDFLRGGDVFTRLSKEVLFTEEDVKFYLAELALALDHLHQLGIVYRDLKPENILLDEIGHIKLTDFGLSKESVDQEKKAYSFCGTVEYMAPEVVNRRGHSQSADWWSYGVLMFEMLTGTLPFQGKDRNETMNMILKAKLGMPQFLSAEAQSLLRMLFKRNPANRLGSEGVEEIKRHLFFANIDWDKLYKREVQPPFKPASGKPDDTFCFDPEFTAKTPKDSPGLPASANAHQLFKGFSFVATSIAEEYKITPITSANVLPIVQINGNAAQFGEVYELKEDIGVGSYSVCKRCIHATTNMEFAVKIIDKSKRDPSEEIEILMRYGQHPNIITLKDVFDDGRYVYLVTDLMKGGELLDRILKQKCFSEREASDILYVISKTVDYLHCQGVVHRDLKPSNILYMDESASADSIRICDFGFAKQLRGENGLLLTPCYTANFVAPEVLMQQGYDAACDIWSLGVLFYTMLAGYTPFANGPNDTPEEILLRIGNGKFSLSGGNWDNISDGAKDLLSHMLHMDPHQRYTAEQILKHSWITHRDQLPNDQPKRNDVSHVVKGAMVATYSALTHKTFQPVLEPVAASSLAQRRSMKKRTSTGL
Chain of Maternal embryonic leucine zipper kinase (Homo sapiens) (Q14680 whole entry, looked up): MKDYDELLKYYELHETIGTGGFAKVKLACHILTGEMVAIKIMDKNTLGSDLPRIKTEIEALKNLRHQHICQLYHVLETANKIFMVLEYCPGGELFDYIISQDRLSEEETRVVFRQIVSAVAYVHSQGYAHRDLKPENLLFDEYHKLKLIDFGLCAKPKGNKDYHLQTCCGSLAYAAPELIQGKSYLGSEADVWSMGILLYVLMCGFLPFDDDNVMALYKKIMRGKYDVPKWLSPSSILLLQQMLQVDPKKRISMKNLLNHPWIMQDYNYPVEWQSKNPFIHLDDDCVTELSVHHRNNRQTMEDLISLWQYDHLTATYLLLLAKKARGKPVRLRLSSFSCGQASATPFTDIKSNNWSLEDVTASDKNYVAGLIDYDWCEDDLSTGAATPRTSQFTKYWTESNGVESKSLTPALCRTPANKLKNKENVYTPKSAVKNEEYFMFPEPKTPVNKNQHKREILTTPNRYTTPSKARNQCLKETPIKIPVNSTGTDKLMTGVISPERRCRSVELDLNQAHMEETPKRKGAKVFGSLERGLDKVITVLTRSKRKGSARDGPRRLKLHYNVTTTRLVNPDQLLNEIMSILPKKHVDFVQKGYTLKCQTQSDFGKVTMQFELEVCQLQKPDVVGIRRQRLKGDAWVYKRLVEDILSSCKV
Chain of Tyrosine-protein kinase Fer (Homo sapiens) (P16591 whole entry, looked up): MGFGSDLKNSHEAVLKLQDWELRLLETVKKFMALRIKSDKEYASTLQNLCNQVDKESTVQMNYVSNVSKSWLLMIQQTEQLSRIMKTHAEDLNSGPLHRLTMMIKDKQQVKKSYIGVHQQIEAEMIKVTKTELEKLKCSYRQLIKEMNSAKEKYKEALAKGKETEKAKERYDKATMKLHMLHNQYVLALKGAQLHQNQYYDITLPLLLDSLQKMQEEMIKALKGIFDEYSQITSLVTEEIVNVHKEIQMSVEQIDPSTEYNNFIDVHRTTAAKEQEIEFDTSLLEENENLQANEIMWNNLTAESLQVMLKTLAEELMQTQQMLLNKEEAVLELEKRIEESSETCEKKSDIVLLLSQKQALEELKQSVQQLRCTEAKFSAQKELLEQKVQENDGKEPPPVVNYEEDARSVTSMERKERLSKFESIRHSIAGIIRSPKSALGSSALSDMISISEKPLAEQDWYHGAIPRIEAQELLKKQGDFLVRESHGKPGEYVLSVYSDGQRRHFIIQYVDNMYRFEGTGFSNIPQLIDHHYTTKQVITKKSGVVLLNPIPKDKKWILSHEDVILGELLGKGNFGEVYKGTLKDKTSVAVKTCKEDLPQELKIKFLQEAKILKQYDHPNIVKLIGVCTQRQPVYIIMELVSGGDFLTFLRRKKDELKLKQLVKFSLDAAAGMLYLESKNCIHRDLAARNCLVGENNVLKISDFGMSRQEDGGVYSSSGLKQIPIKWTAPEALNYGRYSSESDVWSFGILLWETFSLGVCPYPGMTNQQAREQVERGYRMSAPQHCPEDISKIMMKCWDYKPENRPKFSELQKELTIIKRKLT

On to `N#Cc1cccc(-c2c[nH]c3ncnc(N4CCOCC4)c23)c1`, for which the % of control in assay [1] was found to be 29%.

As for `CCN(CC)CCCCNc1ncc2cc(-c3cc(OC)cc(OC)c3)c(NC(=O)NC(C)(C)C)nc2n1`, the % of control in assay [2] stood at 100%.

Consider `Cc1cc(F)c(C(=O)Nc2cccc(-c3nncn3C(C)C)n2)cc1-n1cnc(C2CC2)c1`, for which the % of control in assay [3] is 100%.

Take `CC[C@@H]1[C@H](F)C(=O)N[C@@H]1COc1nccc2cc(C(N)=O)c(OC)cc12` [ZIMLOVISERTIB]: in assay [4], the % of inhibition stood at 18.6%.

On to `C=CC(=O)Nc1cc(-n2c(=O)ccc3cnc4ccc(-c5ccc(NS(C)(=O)=O)cc5)cc4c32)ccc1C`, for which the % of control in assay [5] (at 1 µM) is 80%; in assay [5] (at 10 µM), 95%; in assay [6] it was 100%.

`COc1cc(N(C)c2ccnc3ccc(C(F)(F)F)cc23)cc(OC)c1OC` came in with a % binding in assay [7] of 91%.
